Test results: patent publication US20260226010A1, “HETEROCYCLIC COMPOUNDS AS PI3Ka INHIBITORS” (Pikavation Therapeutics, Inc., priority 2023, published 2026)

These molecules were tested on T47D (PIK3CA H1047R) cells (assay: pS473 AKT assay). Settings: Homo sapiens; pSer473 AKT in T47D (PIK3CA H1047R) cells, 2 h treatment, DMEM with 2.5% FBS; read-out: T47D_IC50.
Assay type: cell-based
Description: T47D (PIK3CA H1047R) cells were cultured using 10-cm petri dishes with recommended medium plus 10% fetal bovine serum. One day before the assay, cells were seeded in 96-well plates. After overnight incubation, the medium was changed to DMEM with 2.5% fetal bovine serum (FBS) and the cells were treated with different concentrations of the compounds for 2 h. Cells were then fixed using 4% paraformaldehyde at room temperature for 20 min. Aspirate 4% paraformaldehyde, and wash cells using 1× regular phosphate buffered saline 3 times, 5 min each. Aspirate any residual phosphate buffered saline and block cells using 10% goat serum containing 1% bovine serum albumin and 0.3% Triton X-100 at room temperature for 1 h. Without any additional washing, primary antibodies (rabbit anti-pSer473 AKT) were diluted using blocking buffer and added at a final volume of 50 microliter per well. Keep assay plates with primary antibodies overnight at 4° C. Wash cells using 1× regular phosphate buffered saline 3 times, 5 min each. After the final wash, incubate cells with horseradish peroxidase-conjugated secondary antibodies (goat Anti-rabbit IgG) diluted using the same blocking buffer at room temperature for 1 h. Wash cells thoroughly using 1× regular phosphate buffered saline 3 times, 5 min each. Aspirate any residual phosphate buffered saline. Add Super-Signal ELISA Pico Chemiluminescent Substrate at a final volume of 100 microliter per well. Read plates on i3× Multi-Mode Microplate Reader and calculate IC50 values using GraphPad Prism software.
Work on `Cc1cc2c(c(C(C)Nc3ccc(C)nc3C(=O)O)c1)CC1(Cc3ccccc3C1)N(C)C2=O` (stereo not shown) [Example 5, 3-((1-(2′,7′-Dimethyl-1′-oxo-1,1′,3,4′-tetrahydro-2′H-spiro[indene-2,3′-isoquinolin]-5′-yl)ethyl)amino)-6-methylpicolinic acid] yielded an IC50 of 1000 to 5000 nM. Work on `Cc1cc2c(c(C(C)Nc3ccc(Cl)nc3C(=O)O)c1)CC1(CCc3ccccc31)N(C)C2=O` (stereo not shown) [Example 3, 6-Chloro-3-[1-(2,7-dimethyl-1-oxo-spiro[4H-isoquinoline-3,1′-indane]-5-yl)ethylamino]pyridine-2-carboxylic acid] yielded an IC50 of less than 1000 nM. Work on `Cc1cc2c(c(C(C)Nc3ccccc3C(=O)O)c1)CC1(Cc3ccccc3C1)N(C)C2=O` (stereo not shown) [Example 4, 2-[1-(2,7-Dimethyl-1-oxo-spiro[4H-isoquinoline-3,2′-indane]-5-yl)ethylamino]benzoic acid] yielded an IC50 of 1000 to 5000 nM. `Cc1cc2c(c(C(C)Nc3ccc(C)nc3C(=O)O)c1)CC1(CCc3ccccc31)N(C)C2=O` (stereo not shown) [Example 2, 3-[1-(2,7-Dimethyl-1-oxo-spiro[4H-isoquinoline-3,1′-indane]-5-yl)ethylamino]-6-methyl-pyridine-2-carboxylic acid] was tested, and the IC50 was less than 1000 nM. `Cc1cc2c(c(C(C)Nc3ccc(Cl)nc3-c3ccncc3F)c1)CC1(CCc3ccccc31)N(C)C2=O` (stereo not shown) [Example 7, 5-[1-[[6-Chloro-2-(3-fluoro-4-pyridyl)-3-pyridyl]amino]ethyl]-2,7-dimethyl-spiro[4H-isoquinoline-3,1′-indane]-1-one] was tested, and the IC50 was less than 1000 nM. With `Cc1cc2c(c(C(C)Nc3ccccc3C(=O)O)c1)CC1(CCc3ccccc31)N(C)C2=O` (stereo not shown) [Example 1, 2-[1-(2,7-Dimethyl-1-oxo-spiro[4H-isoquinoline-3,1′-indane]-5yl)ethylamino]benzoic acid] the IC50 was less than 1000 nM. Work on `Cc1cc2c(c(C(C)Nc3ccc(Cl)nc3-c3cnn(C)c3)c1)CC1(CCc3ccccc31)N(C)C2=O` (stereo not shown) [Example 6, 5-[1-[[6-Chloro-2-(1-methylpyrazol-4-yl)-3-pyridyl]amino]ethyl]-2,7-dimethyl-spiro[4H-isoquinoline-3,1′-indane]-1-one] yielded an IC50 of less than 1000 nM.
